For one series, the system named is Haemophilus influenzae. As to the kind of experiment: MIC, Haemophilus influenzae. Format: cell-based. Conditions: Mueller-Hinton broth with hemin and NAD, 24 hours, 5×10^4 CFU/well. How it is done:
(§1) The following results were obtained on a standard in-vitro test system. The activity is described in terms of the minimum inhibitory concentration (MIC) determined by the agar-dilution technique with an inoculum size of 10^4 CFU/spot. Typically, compounds are active in the range 0.01 to 256 μg/ml.
(§2) Streptococci and enterococci were tested on agar supplemented with 5% defibrinated horse blood, an inoculum of 10^4 CFU/spot and an incubation temperature of 37° C. in an atmosphere of 5% carbon dioxide for 48 hours—blood is required for the growth of some of the test organisms. Fastidious Gram negative organisms were tested in Mueller-Hinton broth, supplemented with hemin and NAD, grown aerobically for 24 hours at 37° C., and with an inoculum of 5×10^4 CFU/well.

A further series concerns the target T1, MAO-A (Homo sapiens, UniProt P21397).
T1 construct: made in house; host or cells: yeast
T1 sequence (P21397 1-527): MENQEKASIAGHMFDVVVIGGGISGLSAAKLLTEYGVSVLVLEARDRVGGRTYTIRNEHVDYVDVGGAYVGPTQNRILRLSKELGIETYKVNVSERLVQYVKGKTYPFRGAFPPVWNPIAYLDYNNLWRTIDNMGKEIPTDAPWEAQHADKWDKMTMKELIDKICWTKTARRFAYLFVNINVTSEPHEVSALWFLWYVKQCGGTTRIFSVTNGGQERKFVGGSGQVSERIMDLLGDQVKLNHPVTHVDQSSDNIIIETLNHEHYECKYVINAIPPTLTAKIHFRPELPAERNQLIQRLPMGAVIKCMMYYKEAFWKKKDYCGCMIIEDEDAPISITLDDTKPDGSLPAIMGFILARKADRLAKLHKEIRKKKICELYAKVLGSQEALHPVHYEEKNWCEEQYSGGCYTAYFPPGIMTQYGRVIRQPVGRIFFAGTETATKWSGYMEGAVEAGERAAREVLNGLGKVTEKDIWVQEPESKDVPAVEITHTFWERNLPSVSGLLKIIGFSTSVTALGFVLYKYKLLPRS
Description: MAO-A standard in-vitro assay, human liver enzyme expressed in yeast. It is filed as biochemical. Conditions: read-out: Ki against MAO-A. How it is done:
The activity of the compounds of the invention against MAO-A was tested using a standard in-vitro assay based on human liver enzyme expressed in yeast as described in Biochem. Biophys. Res. Commun. 1991, 181, 1084-1088.

Series [1] deals with Linezolid Resistant Streptococcus pneumoniae. Description: MIC, Linezolid Resistant Streptococcus pneumoniae. Conditions: agar with 5% defibrinated horse blood, 5% carbon dioxide, 48 hours. It is filed as cell-based. How it is done:
as §1, §2

In another series the test system is Moraxella catarrhalis. Description: MIC, Moraxella catarrhalis. It is filed as cell-based. The note with it: Mueller-Hinton broth with hemin and NAD, 24 hours, 5×10^4 CFU/well. How it is done:
as §1, §2

The subject of another series is Streptococcus pneumoniae. Description: MIC, Streptococcus pneumoniae. It is filed as cell-based. Conditions: agar with 5% defibrinated horse blood, 5% carbon dioxide, 48 hours. The method, then: as §1, §2
Series [2] relates to Staphylococcus aureus MRQR (methicillin resistant and quinolone resistant). Description: MIC by agar-dilution, Staphylococcus aureus MRQR. It is filed as cell-based. The note with it: inoculum 10^4 CFU/spot, 37° C., 24 hours. How it is done:
as §1
(§3) Staphylococci were tested on agar, using an inoculum of 10^4 CFU/spot and an incubation temperature of 37° C. for 24 hours—standard test conditions for the expression of methicillin resistance.

In series [3] the test system is Staphylococcus aureus MSQS (methicillin sensitive and quinolone sensitive). Description: MIC by agar-dilution, Staphylococcus aureus MSQS. Format: cell-based. Conditions: inoculum 10^4 CFU/spot, 37° C., 24 hours. How it is done: as §1, §3
The test system of series [4] is Staphylococci, Streptococci, enterococci, fastidious Gram negative organisms. Description: standard in-vitro test system, antibacterial activity (MIC). The note with it: result in words. Format: cell-based.
Description: The pharmaceutically-acceptable compounds of the present invention are useful antibacterial agents having a good spectrum of activity in vitro against standard Gram-positive organisms, which are used to screen for activity against pathogenic bacteria. […] The antibacterial spectrum and potency of a particular compound may be determined in a standard test system.
as §1, §3, §2

The structures appear in SMILES notation. ≈ marks a conversion by molar mass, not a printed value. Where a name gives a salt, the structure may show the parent alone.

The melting point is the temperature, or range, at which the solid turns liquid. Take `CC[C@H](C)[C@H](N)C(=O)OCCOC[C@@H]1CC(c2ccc(-c3ccc(N4C[C@H](Cn5ccnn5)OC4=O)cc3F)cn2)=NO1` (as salt: HCl) [Example 17, 2-{[(5S)-3-(5-{2-Fluoro-4-[(5R)-2-oxo-5-(1H-1,2,3-triazol-1-ylmethyl)-1,3-oxazolidin-3-yl]phenyl}pyridin-2-yl)-4,5-dihydroisoxazole-5-yl]methoxy}ethyl L-isoleucinate]: the melting point turned out to be 119 °C.

In turn, `CN(C)CC(O)COC[C@@H]1CC(c2ccc(-c3ccc(N4C[C@H](Cn5ccnn5)OC4=O)cc3F)cn2)=NO1` (some centres unmarked) (as salt: hydrochloride) [Example 19] displayed a melting point of 110 to 115 °C.

`O=C1OC(Cn2ccnn2)CN1c1ccc(-c2ccc(C3=NO[C@H](COCCN4CCOCC4)C3)nc2)c(F)c1` (stereo in doubt) [Example 10, (5S)-3-[3-Fluoro-4-(6-{(5S)-5-[(2-morpholin-4-ylethoxy)methyl]-4,5-dihydroisoxazole-3-yl}pyridin-3-yl)phenyl]-5-(1H-1,2,3-triazol-1-ylmethyl)-1,3-oxazolidin-2-one] gave a melting point of 171 °C.

In turn, `O=C(O)COC[C@@H]1CC(c2ccc(-c3ccc(N4C[C@H](Cn5ccnn5)OC4=O)cc3F)cn2)=NO1` [Example 3, {[(5S)-3-(5-{2-Fluoro-4-[(5R)-2-oxo-5-(1H-1,2,3-triazol-1-ylmethyl)-1,3-oxazolidin-3-yl]phenyl}pyridin-2-yl)-4,5-dihydroisoxazole-5-yl]methoxy}acetic acid] gave a melting point of 190 °C.

The term Ki denotes the dissociation constant of the complex between target and ligand, obtained from inhibition or displacement. `CNC(=O)COC[C@@H]1CC(c2ccc(-c3ccc(N4C[C@H](Cn5ccnn5)OC4=O)cc3F)cn2)=NO1` [Example 4, 2-{[(5S)-3-(5-{2-Fluoro-4-[(5R)-2-oxo-5-(1H-1,2,3-triazol-1-ylmethyl)-1,3-oxazolidin-3-yl]phenyl}pyridin-2-yl)-4,5-dihydroisoxazole-5-yl]methoxy}-N-methylacetamide] came in with a melting point of 153 to 156 °C. Besides, in the series on Haemophilus influenzae, the MIC is 8 µg/mL (≈ 15.7 µM). In addition, the Ki at MAO-A came out at 8 µM. In series [1], the MIC worked out at 1 µg/mL (≈ 1.96 µM). In the series with Moraxella catarrhalis, this molecule displayed an MIC of 0.5 µg/mL (≈ 0.981 µM). This molecule also yielded an MIC in the series on Streptococcus pneumoniae of 0.06 µg/mL (≈ 0.118 µM). This molecule also gave an MIC in series [2] of 0.5 µg/mL (≈ 0.981 µM). This molecule gave an MIC in [3] of 0.25 µg/mL (≈ 0.491 µM).

In turn, `CN(C)C(=O)COC[C@@H]1CC(c2ccc(-c3ccc(N4C[C@H](Cn5ccnn5)OC4=O)cc3F)cn2)=NO1` [Example 5, 2-{[(5S)-3-(5-{2-Fluoro-4-[(5R)-2-oxo-5-(1H-1,2,3-triazol-1-ylmethyl)-1,3-oxazolidin-3-yl]phenyl}pyridin-2-yl)-4,5-dihydroisoxazole-5-yl]methoxy}-N,N-dimethylacetamide] yielded a melting point of 166 to 168 °C.

The molecule `CN1CCN(C(=O)COC[C@@H]2CC(c3ccc(-c4ccc(N5C[C@H](Cn6ccnn6)OC5=O)cc4F)cn3)=NO2)CC1` [Example 6, (5R)-3-{3-Fluoro-4-[6-((5S)-5-{[2-(4-methylpiperazin-1-yl)-2-oxoethoxy]methyl}-4,5-dihydroisoxazole-3-yl)pyridin-3-yl]phenyl}-5-(1H-1,23-triazol-1-ylmethyl)-1,3-oxazolidin-2-one] gave a melting point of 165 to 175 °C.

As for `O=C1O[C@@H](Cn2ccnn2)CN1c1ccc(-c2ccc(C3=NO[C@H](COCCCO)C3)nc2)c(F)c1` [Example 7, (5R)-3-[3-Fluoro-4-(6-{(5S)-5-[(3-hydroxypropoxy)methyl]-4,5-dihydroisoxazole-3-yl}pyridin-3-yl)phenyl]-5-(1H-1,23-triazol-1-ylmethyl)-1,3-oxazolidin-2-one], the melting point is 176 °C.

In turn, `O=C1O[C@@H](Cn2ccnn2)CN1c1ccc(-c2ccc(C3=NO[C@H](COCCO)C3)nc2)c(F)c1` [Example 8] returned a melting point of 162 °C.

Molecule `CS(=O)(=O)NCCOC[C@@H]1CC(c2ccc(-c3ccc(N4C[C@H](Cn5ccnn5)OC4=O)cc3F)cn2)=NO1` [Example 13, N-(2-{[(5S)-3-(5-{2-Fluoro-4-[(5R)-2-oxo-5-(1H-1,2,3-triazol-1-ylmethyl)-1,3-oxazolidin-3-yl]phenyl}pyridin-2-yl)-4,5-dihydroisoxazole-5-yl]methoxy}ethyl)methanesulfonamide] returned a melting point of 170 °C.

Molecule `CC(=O)NCCOC[C@@H]1CC(c2ccc(-c3ccc(N4C[C@H](Cn5ccnn5)OC4=O)cc3F)cn2)=NO1` [Example 14, N-(2-{[(5S)-3-(5-{2-Fluoro-4-[(5R)-2-oxo-5-(1H-1,2,3-triazol-1-ylmethyl)-1,3-oxazolidin-3-yl]phenyl}pyridin-2-yl)-4,5-dihydroisoxazole-5-yl]methoxy}ethyl)acetamide] showed a melting point of 134 °C.

`N#CCOC[C@@H]1CC(c2ccc(-c3ccc(N4C[C@H](Cn5ccnn5)OC4=O)cc3F)cn2)=NO1` [Example 15, {[(5S)-3-(5-{2-Fluoro-4-[(5R)-2-oxo-5-(1H-1,2,3-triazol-1-ylmethyl)-1,3-oxazolidin-3-yl]phenyl}pyridin-2-yl)-4,5-dihydroisoxazole-5-yl]methoxy}acetonitrile]: the melting point was 90 to 115 °C.

As for `CC(C)(O)COC[C@@H]1CC(c2ccc(-c3ccc(N4C[C@H](Cn5ccnn5)OC4=O)cc3F)cn2)=NO1` [Example 16], the melting point lay in the range of 180 to 187 °C.

In turn, `CN(CCOC[C@@H]1CC(c2ccc(-c3ccc(N4C[C@H](Cn5ccnn5)OC4=O)cc3F)cn2)=NO1)CC(=O)O` [Example 20, N-(2-{[(5S)-3-(5-{2-Fluoro-4-[(5R)-2-oxo-5-(1H-1,2,3-triazol-1-ylmethyl)-1,3-oxazolidin-3-yl]phenyl}pyridin-2-yl)-4,5-dihydroisoxazole-5-yl]methoxy}ethyl)-N-methylglycine] came in with a melting point of 135 to 140 °C.

With `CC(C)(C)OC(=O)COC[C@@H]1CC(c2ccc(-c3ccc(N4C[C@H](Cn5ccnn5)OC4=O)cc3F)cn2)=NO1` [Pro-drug Example 1, tert-Butyl {[(5S)-3-(5-{2-fluoro-4-[(5R)-2-oxo-5-(1H-1,2,3-triazol-1-ylmethyl)-1,3-oxazolidin-3-yl]phenyl}pyridin-2-yl)-4,5-dihydroisoxazole-5-yl]methoxy}acetate], the melting point was 186 °C.

Take `C=CCOC[C@@H]1CC(c2ccc(-c3ccc(N4C[C@H](Cn5ccnn5)OC4=O)cc3F)cn2)=NO1` [compound 2, (5R)-3-[4-(6-{(5S)-5-[(Allyloxy)methyl]-4,5-dihydroisoxazole-3-yl}pyridin-3-yl)-3-fluorophenyl]-5-(1H-1,2,3-triazol-1-ylmethyl)-1,3-oxazolidin-2-one]: the melting point is 162 °C. Further, the antibacterial activity result in series [4] was “have antibacterial activity”.

Molecule `[N-]=[N+]=NCCOC[C@@H]1CC(c2ccc(-c3ccc(N4C[C@H](Cn5ccnn5)OC4=O)cc3F)cn2)=NO1` [compound 9] yielded a melting point of 148 °C. Further, the antibacterial activity result in series [4] is on record as “have antibacterial activity”.

The values are drawn from US20070208062A1, “3-(4-(2-DIHYDROISOXAZOL-3-YLPYRIDIN-5-YL)PHENYL)-5-TRIAZOL-1-YLMETHYLOXAZOLIDIN-2-ONE DERIVATIVES AS MAO INHIBITORS FOR THE TREATMENT OF BACTERIAL INFECTIONS” (ASTRAZENECA AB, priority 2004, published 2007).
